In patent US4179467A, “Dopamine hydroxylase inhibiting 2-amino-cyclopent-1-ene-1-thiocarboxylic acid-disulfides” (Richter Gedeon Vegyeszeti Gyar Rt., priority 1976, dated 1979):

Key:
dopamine-β-hydroxylase [1] = assay: Noradrenaline level of spleen in rats, % of controls; format: in vivo, male Wistar rats; details: rat, i.p., 37.5 mg/kg, 4 hours
Experimental: (§1) The dopamine-β-hydroxylase inhibiting effects of the new compounds according to the invention were examined by the following tests:
The tests were performed on male Wistar rats weighing 150 to 200 g. The dopamine-β-hydroxylase inhibiting effects of the compounds were evaluated by determining the change of noradrenaline, dopamine and adrenaline levels of the cerebrum, heart, spleen and adrenal gland. The serotonine and 5-hydroxy-indolylacetic acid levels of the cerebrum were also determined. The measurements were performed as follows: […]
The organs were weighed in the frozen state and then homogenized in 5.0 ml of 0.4 N perchloric acid containing 0.05% of EDTA-Naa and 0.1% of Na2 S2 O5. […] Noradrenaline was determined according to the method of Shellenberger et al. (Anal. Biochem. 39, 356 (1971)), with the following modifications of the basic procedure: 0.5 ml of 0.1 molar Na-K-phosphate buffer, containing 9 g/l of EDTA-Na2, were added to 0.5 ml of the eluate, and the catecholamines (noradrenaline in the examination of heart and spleen and noradrenaline and dopamine in the examination of the cerebrum) were oxidized with 0.1 ml of a 0.1 N iodine solution in 5% potassium iodide. […] The fluorescency of noradrenaline was measured with an OPTON spectrophotometer at wavelengths of 380 nm (excitation) and 490 nm (emission). […]

dopamine-β-hydroxylase [2] = details: literature, cited from earlier work
in vivo = details: mouse, in vivo, ip; mice
dopamine-β-hydroxylase [3] = assay: Adrenaline level of adrenal gland in rats, % of controls; format: in vivo, male Wistar rats; details: rat, 4 hours
Experimental: as §1
(§2) The tests were performed on male Wistar rats weighing 150 to 200 g. The dopamine-β-hydroxylase inhibiting effects of the compounds were evaluated by determining the change of noradrenaline, dopamine and adrenaline levels of the cerebrum, heart, spleen and adrenal gland. The serotonine and 5-hydroxy-indolylacetic acid levels of the cerebrum were also determined. The measurements were performed as follows:
(§3) The animals were decapitated, the cerebrum, heart, spleen and adrenal gland were removed quickly, and the organs were frozen by placing them on a metal sheet cooled with dry ice. The frozen organs were stored for a maximum of one night at -20° C.
The adrenal glands were freed from fat and homogenized in 3.0 ml of ice-cold 0.4 N perchloric acid. The homogenized mixtures were centrifuged for 10 minutes at 0° C. with a speed of 3200 r.p.m. using a Janetzky K-70 type centrifuge. 0.05 ml samples were taken from the supernatant, and the adrenaline level was determined directly by the method of Laverty et al. (Anal. Biochem. 22, 269 (1968)).
(§4) In the tests disulfiram, 2,2-dipyridyl, bis(1-methyl-4-homopiperazinyl-thiocarbonyl)-disulfide, sodium diethyldithiocarbamate and N-phenyl-N'-(2-thiazolyl)-thiourea were used as reference substances. The values indicated in Table 1 are the percentages in relation to the amine levels of the controls measured in the same tests (±standard error). The statistical calculations were performed on a TPA/i type computer, using Student's t test.

[4] = tested on: serotonine and 5-hydroxy-indolylacetic acid levels of the cerebrum; assay: Serotonine and 5-hydroxy-indolylacetic acid levels of the cerebrum (brain) in rats, % of controls; format: in vivo, male Wistar rats; details: for Brain SE level (percentages in relation to the controls): rat, i.p., 4 hours
Experimental: as §2, §3
In a further test series the serotonine and 5-hydroxy-indolylacetic acid contents were also determined, in addition to the determination of the noradrenaline and dopamine content, from the same sample. In this instance the brains were homogenized in 10 ml of 75% ethanol, 0.2 ml of EDTA-Na2 and 5% of ascorbic acid were added to the homogenized mixtures, and the homogenized mixtures were maintained at -20° C. overnight. The mixtures were centrifuged as described above, and 5.0 ml samples of the supernatant were removed. The samples were diluted with equal volumes of distilled water, and poured onto ion exchange columns of 0.5×1.5 cm dimensions, filled with buffered Amberlite CG-30 (200 to 400 mesh). The columns were washed with 5 ml of distilled water followed by 1.0 ml of 0.2 N hydrochloric acid, and the first effluent and the aqueous wash were collected for the determination of 5-hydroxy-indolylacetic acid. Elution was continued with a further 1.2 ml quantity of 0.2 N hydrochloric acid in order to remove noradrenaline, dopamine and serotonine. Samples of 0.3 ml were used for the determinations.
Noradrenaline and dopamine were determined by the method of Shellenberger, modified as described above, whereas serotonine was determined by the method of Curzon et al. (Brit. J. Pharmacol. 39, 653 (1970)). The basic method was modified as follows: A 0.5% solution of ortho-phthal(di)aldehyde in absolute ethanol was diluted with […] hydrochloric acid to 50-fold of its original volume, and 0.6 ml of the resulting 0.01% ortho-phthal(di)aldehyde solution were added immediately to 0.5 ml of the serotonine-containing sample. The sample was placed in a hot water bath for 10 minutes, thereafter cooled with tap water, and the flourescence was recorded at wavelengths of 360 nm (excitation) and 490 nm (emission).
5-Hydroxy-indolylacetic acid was determined from the mixture of the first effluent and the aqueous wash. 10 ml of distilled water and 0.2 ml of concentrated hydrochloric acid were added to the mixture, and the sample was poured onto a 0.8×4.0 cm column filled with Sephadex G-10. The column was washed with 15 ml of 0.1 N hydrochloric acid followed by 1.8 to 2.0 ml of 0.02 N aqueous ammonia, and then 5-hydroxy-indolylacetic acid was eluted with further 2.0 ml of the aqueous ammonia. 0.5 ml samples were used in the measurements, and the determination was performed according to the method of Korf et al. (Biochem. Pharmacol. 20, 659 (1971)).
as §4

dopamine-β-hydroxylase [5] = assay: Noradrenaline level of heart in rats, % of controls; format: in vivo, male Wistar rats; details: rat, 4 hours
Experimental: as §1, §2, §3
(§5) The organs were weighed in the frozen state and then homogenized in 5.0 ml of 0.4 N perchloric acid containing 0.05% of EDTA-Naa and 0.1% of Na2 S2 O5. The homogenized mixtures were centrifuged as described above for the treatment of adrenal gland, the supernatants were decanted, and the pH was adjusted to 8.0±0.1 with a 0.1 molar tris buffer containing 20 g/l of NaOH and 25 g/l of EDTA-Na2. 100 mg of prepared Al2 O3 (Anton et al.: J. Pharm. Ther. 138, 360 (1962)) were added to the samples, and the mixtures were shaken mechanically for 20 minutes. Thereafter the Al2 O3 was washed with 2×10 ml of distilled water, and noradrenaline was eluted with 1.0 ml of 0.05 N perchloric acid. 0.5 ml samples of the eluate were used for the determination of noradrenaline. Noradrenaline was determined according to the method of Shellenberger et al. (Anal. Biochem. 39, 356 (1971)), with the following modifications of the basic procedure: 0.5 ml of 0.1 molar Na-K-phosphate buffer, containing 9 g/l of EDTA-Na2, were added to 0.5 ml of the eluate, and the catecholamines (noradrenaline in the examination of heart and spleen and noradrenaline and dopamine in the examination of the cerebrum) were oxidized with 0.1 ml of a 0.1 N iodine solution in 5% potassium iodide. After exactly 2 minutes, oxidation was stopped by adding 0.25 ml of a 2.5% sodium sulfite solution in 4.4 N aqueous sodium hydroxide to the mixture. 2 minutes after the introduction of the alkaline sulfite solution, 0.2 ml of concentrated acetic acid was added to the samples, whereupon the pH decreased to 4.4 to 4.5. Thereafter the samples were placed for 5 minutes in a drying oven heated to 100° C., and then the samples were cooled with ice water. The fluorescency of noradrenaline was measured with an OPTON spectrophotometer at wavelengths of 380 nm (excitation) and 490 nm (emission).
as §4

dopamine-β-hydroxylase [6] = assay: Noradrenaline and dopamine levels of the cerebrum (brain) in rats, % of controls; format: in vivo, male Wistar rats; details: rat, 4 hours
Experimental: as §1, §2, §3, §5
The brains were homogenized in 10 parts by volume of 0.4 N perchloric acid. The homogenized mixture was stored at -20° C. overnight; thereafter it was thawed and centrifuged as described above. A sample of the homogenized mixture corresponding to 0.5 g of brain was removed, the pH of the sample was adjusted to 8.0±0.1 with 0.1 molar tris-buffer of the above composition, and the sample was processed as described above for the determination of the noradrenaline content of heart and spleen, with the difference that 1.5 ml of 0.05 N perchloric acid was used as the eluting agent. 0.5 ml of the eluate was used to determine the noradrenaline and dopamine contents. The measurement was performed as described above, with the difference that samples of 0.5 ml were applied for the recording of the flourescence of noradrenaline. The residue was placed for 50 minutes into a drying oven heated to 100° C., thereafter the sample was cooled with ice water, and the fluorescence of dopamine was recorded at wavelengths of 325 nm (excitation) and 380 nm (emission).
In a further test series the serotonine and 5-hydroxy-indolylacetic acid contents were also determined, in addition to the determination of the noradrenaline and dopamine content, from the same sample. […]

Toxicity, LD50, rabbits = details: rabbit, in vivo, po
Toxicity, LD50, rats = details: rat, in vivo, po
mice = assay: in vivo; details: i.p.

c1ccc(-c2ccccn2)nc1 [2,2-D, 2,2-dipyridyl]
Spleen NA level (percentages in relation to the controls) (dopamine-β-hydroxylase [1]): 100%
dopamine-β-hydroxylase inhibition in vitro, in words (dopamine-β-hydroxylase [2]; in vitro conditions): effective under in vitro conditions
LD50 (in vivo): 280 mg/kg
Adrenal gland adrenaline level (% of controls) (dopamine-β-hydroxylase [3]; i.p., 37.5 mg/kg): 80%
Adrenal gland adrenaline level (% of controls) (dopamine-β-hydroxylase [3]; i.p., 75 mg/kg): 63%
response vs control in vivo at 75 mg/kg ([4]; Rattus norvegicus, ip, 4 h, read-out: Brain SE level (percentages in relation to the controls)): 100%
Heart NA level (percentages in relation to the controls) (dopamine-β-hydroxylase [5]; i.p., 37.5 mg/kg): 104%
Heart NA level (percentages in relation to the controls) (dopamine-β-hydroxylase [5]; i.p., 75 mg/kg): 58%
Brain DA level (percentages in relation to the controls) (dopamine-β-hydroxylase [6]; i.p., 37.5 mg/kg): 116%
Brain NA level (percentages in relation to the controls) (dopamine-β-hydroxylase [6]; i.p., 37.5 mg/kg): 79.5%
Brain DA level (percentages in relation to the controls) (dopamine-β-hydroxylase [6]; i.p., 75 mg/kg): 95%
Brain NA level (percentages in relation to the controls) (dopamine-β-hydroxylase [6]; i.p., 75 mg/kg): 41.2%

CCN(CC)C(=S)SSC(=S)N(CC)CC [DS, bis(diethylthiocarbamoyl)-disulfide]
dopamine-β-hydroxylase inhibiting effects, in words (dopamine-β-hydroxylase [2]; known compounds): strong dopamine-β-hydroxylase inhibiting effects
Adrenal gland adrenaline level (% of controls) (dopamine-β-hydroxylase [3]; i.p., 200 mg/kg): 52%
Adrenal gland adrenaline level (% of controls) (dopamine-β-hydroxylase [3]; i.p., 400 mg/kg): 66%
Brain SE level (percentages in relation to the controls) ([4]; 200 mg/kg): 122%
Brain SE level (percentages in relation to the controls) ([4]; 400 mg/kg): 117%
LD50 (Toxicity, LD50, rabbits): 1800 ± 130 mg/kg
Heart NA level (percentages in relation to the controls) (dopamine-β-hydroxylase [5]; i.p., 200 mg/kg): 98%
Heart NA level (percentages in relation to the controls) (dopamine-β-hydroxylase [5]; i.p., 400 mg/kg): 102%
Brain DA level (percentages in relation to the controls) (dopamine-β-hydroxylase [6]; i.p., 200 mg/kg): 111%
Brain NA level (percentages in relation to the controls) (dopamine-β-hydroxylase [6]; i.p., 200 mg/kg): 22.5%
Brain DA level (percentages in relation to the controls) (dopamine-β-hydroxylase [6]; i.p., 400 mg/kg): 112%
Brain NA level (percentages in relation to the controls) (dopamine-β-hydroxylase [6]; i.p., 400 mg/kg): 24.1%
LD50 (Toxicity, LD50, rats): 8600 ± 370 mg/kg

CCCCNC1=C(C([O-])=S)CCC1.CCCCNC1=C(C([O-])=S)CCC1.[Zn+2] [M-3, 2-(N-butyl)-amino-cyclopent-1-ene-thiocarboxylic acid (zinc salt)]
LD50 (mice): ~ 450 mg/kg
Adrenal gland adrenaline level (% of controls) (dopamine-β-hydroxylase [3]; i.p., 50 mg/kg): 66.3%
Adrenal gland adrenaline level (% of controls) (dopamine-β-hydroxylase [3]; i.p., 100 mg/kg): 60.5 ± 3.6%
Adrenal gland adrenaline level (% of controls) (dopamine-β-hydroxylase [3]; p.o., 500 mg/kg): 100.3 ±8.3%
Heart NA level (percentages in relation to the controls) (dopamine-β-hydroxylase [5]; i.p., 50 mg/kg): 84.5±4.1%
Heart NA level (percentages in relation to the controls) (dopamine-β-hydroxylase [5]; i.p., 100 mg/kg): 91.5 ± 8.1%
Heart NA level (percentages in relation to the controls) (dopamine-β-hydroxylase [5]; p.o., 500 mg/kg): 108.8 ±3.2%
Brain DA level (percentages in relation to the controls) (dopamine-β-hydroxylase [6]; i.p., 50 mg/kg): 112.2 ± 12.0%
Brain NA level (percentages in relation to the controls) (dopamine-β-hydroxylase [6]; i.p., 50 mg/kg): 85.0 ±9.1%
Brain DA level (percentages in relation to the controls) (dopamine-β-hydroxylase [6]; i.p., 100 mg/kg): 121.3 ± 6.1%
Brain NA level (percentages in relation to the controls) (dopamine-β-hydroxylase [6]; i.p., 100 mg/kg): 73.5 ± 3.2%
Brain DA level (percentages in relation to the controls) (dopamine-β-hydroxylase [6]; p.o., 500 mg/kg): 99.2 ±5.0%
Brain NA level (percentages in relation to the controls) (dopamine-β-hydroxylase [6]; p.o., 500 mg/kg): 98.9 ±2.5%
